Results: US20240287054A1, “COMPOUNDS THAT BIND NON-CANONICAL G-QUADRUPLEX STRUCTURES AND METHODS OF MAKING AND USING THE SAME” (The U.S.A., as Represented by the Secretary, Department of …, priority 2021, published 2024)
Read-outs that look alike come from different tables or passages of the source.

Key:
dsDNA = assay: SPR binding to dsDNA; conditions: up to 5 μM compound injection
MYCN hairpin-G4 DNA = assay: FIA using compound fluorescence (Ex 340/Em 500 nm), titration with unlabeled MYCN G4 DNA; format: binding, human; conditions: 100 nM compound titrated with folded unlabeled MYCN G4
Description: In this study, FIA was used for validating the bindings between certain bivalent and MYCN G4 oligos. To measure the binding affinity, a solution of each compound was prepared in triplicate in a 96 well-plate (Costar, black side clear bottom), resulting in a final concentration of 100 nM (5% final DMSO in the working solution). Unlabeled MYCN G4 DNA was folded based on the above-mentioned annealing method, then added into the well plate resulting in different concentrations by a seral dilution. The plate was incubated at room temperature for 30 min, followed by centrifuging at 500 rpm for 2 minutes. The fluorescence intensity was then quantitatively recorded by a Synergy Mx microplate reader (BioTek) at Ex 340 nm/Em 500 nm. The fluorescence intensities were then normalized, and the binding affinity was calculated by fitting the curve using one-site total model in GraphPad Prism 8.3.1 software.

MYCN G4 DNA = assay: Surface plasmon resonance (SPR) with immobilized biotinylated MYCN G4 DNA; format: binding, human
Description: Surface plasmon resonance (SPR) analysis. The SPR binding assays were performed with a BIAcore 3000 (GE Healthcare) instrument. A CM5 SPR biochip was loaded into the system and primed with running buffer (10 mM Tris, pH7.0, 100 mM KCl, 0.005% Tween 20, 5% DMSO) with a flow rate of 5 μL/min. Then both Flow Cell (Fc) 1 and 2 were activated by EDC/NHS (0.4 M/0.1 M) aqueous solution for 15 min, followed with an injection of streptavidin (SA) solution (0.2 mg/mL in 10 mM sodium acetate buffer, pH4.5) for 30 minutes. After the immobilization amount of SA reached 8,000-10,000 RU, the surface was deactivated by flowing 1 M Ethanolamine aqueous solution (pH 8.5) for 10 min and regenerated with 10 mM NaOH for 2 min to remove the unbound SA. In the meantime, biotinylated MYCN G4 DNA was prepared at 5 μM in the annealing buffer and heated up to 95° C. for 5 min and slowly cooled down. After annealing, a total of 150 μL solution was injected in the Fc 2 of SPR system for 30 min to immobilize DNA onto the chip surface. The small molecule solutions were tested once the baseline was stable.
To detect the binding signal as well as the binding affinity, a higher flowing rate (25 μL/min) was used in both Fc 1 (reference) and Fc 2 (DNA). Each of the compound solution was prepared at 20× designed the concentrations in DMSO, and then diluted into non-DMSO running buffer, resulting in a final concentration of 5% DMSO. Then, a total of 50 μL compound solution was injected in Fc 1-2 flow path for 120 s for association, followed with 200 s running of buffer for dissociation. An injection of 50 μL regeneration buffer (1 M KCl) could be performed between two samples if necessary. The final binding curve was obtained by reference subtraction. To determine the binding affinity (KD), a series of diluted compound solutions were injected and KD was calculated by BIAevaluation 4.0 software (GE Healthcare) using Langmuir 1:1 binding model.
In this example, SPR binding assays were performed to analyze binding activity of representative bivalent compounds of the present disclosure. The compounds of this example included a non-canonical binder component and a G4 stacker component. A BIAcore 3000 (GE Healthcare) instrument was used. A CM5 SPR biochip was used and primed with running buffer (10 mM Tris, pH7.0, 100 mM KCl, 0.005% Tween 20, 5% DMSO). To immobilize the compounds onto the chip surface, the flow rate was set as 5 μL/min. Then the carboxylated dextran on the chip surface was activated by EDC/NHS (0.4 M/0.1 M) aqueous solution for 15 min, followed with an injection of streptavidin (SA) solution (0.2 mg/mL in 10 mM sodium acetate buffer, pH 4.5) for 30 minutes. After the immobilization amount of SA, the surface was quenched by injecting 1 M ethanolamine (EA) aqueous solution (pH 8.5) for 10 min and regenerated with 10 mM NaOH for 2 min to remove the physical adsorption. Furthermore, biotinylated MYCN G4 DNA was prepared at 5 μM in the annealing buffer and heated up to 95° C. for 5 min followed with slowly cooling down to room temperature within 1 h. After annealing, a total of 150 μL solution was injected in the Fc 2 of SPR system for 30 min to immobilize DNA onto the chip surface. The compound solutions were then tested once the baseline was stable.
To detect the binding signal as well as the binding affinity, a higher flowing rate (25 μL/min) was used in both Fc 1 (blank) and Fc 2 (target). Each of the compound solutions was prepared at 20× designed the concentrations in DMSO, and then diluted into non-DMSO running buffer, resulting in a final concentration of 5% DMSO. Then, a total of 50 μL compound solution was injected in Fc 1-2 flow path for 120 s for association, followed with 200 s running of buffer for dissociation. An injection of 50 μL regeneration buffer (1 M KCl) could be performed between two samples if necessary. The final binding curve was obtained by referencing the blank channel (Fc 1). […]

[1] = Solubility / aggregation observations in binding buffers; format: physicochemical; conditions: assay buffers, SPR sensorgrams
Description: A systematic binding assay between 14 analogs and MYCN G4 was performed by SPR and 2-AP (A11) fluorescence titration (FIGS. 26A-26N, 27A-27N). […] For 2-AP fluorescence titration assay (using an A11-substituted construct) observed KD values aligned well with SPR experiments, although the values were slightly lower overall. […] Taking all the SAR data into consideration, MY-8 was elected for cell-based assays.

[2] = biological target: MYCN G4 DNA (2-AP at A11); assay: 2-Aminopurine (2-AP) fluorescence titration, A11-labeled MYCN G4; format: binding, human; conditions: 2-AP at A11 of MYCN G4
Description: 2-Aminopurine (2-AP) fluorescence titration. Fluorescence titrations based on 2-aminopurine labeling were performed using the protocol reported previously. Briefly, MYCN G4 oligonucleotide with a 2-AP substitution at either A11 or A18 position was annealed by heating the sample to 95° C. for 5 min and cooling down to RT slowly. The oligonucleotide with folded structure was diluted to 10 μM in Tris buffer (10 mM Tris, pH7.0, 100 mM KCl, 0.005% Tween 20) and prepared in a black 96-well plate (Costar) in triplicate as designed. Small molecules were diluted in DMSO to obtain a series of solutions with concentrations ranging from 0.1 to 5 mM, and then diluted by 20 times added into the plate (5% DMSO final concentration). The final concentration of 2-AP DNA was 1 μM in the well plate. To obtain the background fluorescence, small molecule solutions without DNA were also prepared in the same plate. After incubation for 30 min at RT, the plate was briefly centrifuged and scanned in Synergy Mx microplate reader (BioTek) with Ex 310 nm/Em 365 nm. Fluorescence signals were calculated by averaging the intensities in triplicate wells after subtracting the references. Finally, the binding signals were normalized and the KD value was determined by fitting the curve using a nonlinear sigmoidal dose-response model with a variable slope in GraphPad Prism 8.3.1 software.

[3] = test system: MYCN G4 DNA (hairpin minor groove); assay: Fluorescence displacement assay with Hoechst 33258; format: binding, human; conditions: competitor added at 5 μM or 50 μM during DNA titration
Description: Fluorescence displacement assay. Fluorescence displacement assays were carried out by using two classical minor groove binders (Hoechst 33258 and netropsin). Hoechst 33258, as a fluorophore, was prepared at 5 μM concentration in the buffer (10 mM Tris, pH7.0, 100 mM KCl), and then titrated with different concentrations of unlabeled MYCN G4 oligonucleotides. For displacement, either compound MY-1 or netropsin was added into the solution resulting in a final concentration of 5 μM or 50 μM. Fluorescence signals were obtained with an excitation wavelength of 352 nm and an emission wavelength of 500 nm.

[4] = test system: 12 different G4 oligos as well as non-G4 oligos (dsDNA and ssDNA); assay: Small-scale DNA G4 microarray binding selectivity; conditions: fluorescent compound incubated 1 h; B33 at 2.5 μM
Description: In this example, a small-scale DNA G4 microarray containing 12 different G4 oligos as well as non-G4 oligos (dsDNA and ssDNA) was fabricated and tested (Table 4). To start with, a SA-coated glass surface was prepared. An amino-functionalized glass slide was firstly modified with a solution of N, N′-disuccinimidyl carbonate (DSC, 1.0 M) and N, N-diisopropylethylamine (DIPEA, 1.0 M) in DMF overnight at room temperature. After being washed successively with EtOH, Milli-Q water (5 min each) and dried with N2 gas, the slide was incubated with 1 mg/mL of SA solution for 12 h (overnight) in a 4° C. fridge, followed by blocking the surface with EA buffer for 30 minutes. Then, the slide was rinsed with PBS buffer and Milli-Q water, and dried b centrifugation (1,700 g, 2 min).
In parallel, biotin-labeled DNA/RNA oligos were prepared in annealing buffer resulting in 5 μM stock solutions, followed by annealing (according to above methods). Then all the oligo solutions were transferred into a 384-well plate. Next, the microarray printing was conducted by a robotic arrayer (Nanoprint, Arrayit, USA) with a humidity of 60%. After the microarray was fabricated, the slide was placed in a slide box with a piece of wet Kimwipe tissue and incubated at 4° C. for 2 h.
To incubate with the fluorescent compounds (compound B33, thiazole orange (“TO”), and amsacrine), the slide was thoroughly rinsed with PBST, PBS, and water to remove the unbounded oligos. Then, the slide was dried by centrifugation (1,700 g, 2 min) and quickly assembled with microarray gaskets (Agilent, USA), followed by loading the compound solutions. After 1 h incubation, the slide was washed and dried with the above-mentioned method. Finally, the microarray slide was imaged by a fluorescence scanner (Mapix) using green channel and the fluorescence intensities were quantified.

[5] = test system: ~19,000 different G4 sequences, G4 and non-G4 controls; assay: High-density DNA oligo microarray (~19,000 G4 sequences) selectivity profiling; format: binding; conditions: 500 nM compound
Description: To further characterize the binding selectivity of compound B33, high-density and large-scale DNA microarrays that contained ˜19,000 different G4 sequences were fabricated and used. In this microarray, 340 reported G4s (G-rich sequences) as well as 280 non-G4s (C-rich sequences) were designed as positive and negative controls. Additionally, over 17,000 canonical G4 oligos with short loops (1˜7 nt) were also designed and synthesized by varying the loop sequences to meet the diversity of G4 structure. After folding the surface-grafted DNA oligos in high concentration of KCl buffer, TO and compound B33 solutions (500 nM) were incubated with the microarray, respectively. Then the slides were thoroughly washed, dried, and imaged by a fluorescent scanner using green channel. […] By quantifying the fluorescence intensity of each spot, the bindings of TO and compound B33 were further investigated. The kernel density estimate (KDE) plot and violin plot represented the distribution of the binding signals throughout the whole microarray. […] Compound B33 spectrum spanned a much wider range than that of TO. In the violin plot (FIG. 37C), the mean SNR value of TO group was 12, much higher than that of the compound B33 group. […] Furthermore, the selectivity of the two compounds were quantitatively profiled by using Gini coefficient. Gini coefficient, initially used as an economic concept, has been applied in profiling the selectivity/promiscuity of kinase inhibitors as well as RNA binders. A higher Gini value represents a better selectivity of a compound (Gini coefficient>0.75 is considered an excellent selectivity). The Gini coefficient based on the SNRs in the microarray.

COc1ccc(-c2noc(-c3ccc(NCCNc4c5ccc(Cl)cc5nc5ccc(OC)cc45)nn3)n2)cc1 [B32, N1-(6-chloro-2-methoxyacridin-9-yl)-N2-(6-(3-(4-methoxyphenyl)-1,2,4-oxadiazol-5-yl)pyridazin-3-yl)ethane-1,2-diamine]
binding to dsDNA on SPR (dsDNA): bound to dsDNA at low micromolar level | Kd (MYCN hairpin-G4 DNA): 311 ± 52 nM | Kd (MYCN G4 DNA; MYCN hairpin G4, SPR titration, read-out: KD by SPR): 303 ± 32 nM

COc1ccc(-c2noc(-c3ccc(NCCCN4CCC(N5CCCCC5)CC4)nn3)n2)cc1 [MY-2]
solubility / aggregation [1]: aggregation potential/poor solubility | A11 2AP KD [2]: sub-micromolar binders | Kd [2]: 200 ± 30 nM | Kd (MYCN G4 DNA; MYCN G4, Langmuir 1:1 model, read-out: SPR KD): 2600 ± 1900 nM

COc1ccc(-c2noc(-c3ccc(NCCC4=CCCCC4)nn3)n2)cc1 [MY-4]
solubility / aggregation [1]: had solubility in suitable buffers

COc1ccc(-c2noc(-c3ccc(NCCc4ccccc4)nn3)n2)cc1 [MY-9]
solubility / aggregation [1]: had solubility in suitable buffers

Cn1cc(NC(=O)c2cc(NC(=O)CN=C(N)N)cn2C)cc1C(=O)NCCC(=N)N [Netropsin, reference compound]
displacement of Hoechst 33258 (decrease in fluorescence intensity) [3]: significant displacement

CN1C(=Cc2cc[n+](C)c3ccccc23)Sc2ccccc21 [TO]
binding pattern in G4 microarray [4]: binding to most of the oligos except for dsDNA/ssDNA | binding to the 620 G4 and non-G4 controls ([5]; 340 G4s and 280 non-G4s): binding to both G4s and non-G4s | Gini coefficient ([5]; based on SNRs in the microarray): 0.236 | mean SNR value ([5]; whole microarray): 12
